Earlier results in patent publication US11549142B2, “CETP inhibitors for therapeutic use” (Hoffmann-La Roche Inc., priority 2013, dated 2023).

Experiments:
[1] = humans; de Grooth et al.; cited from earlier work
[2] = biological target: T1, CETP (Oryctolagus cuniculus, UniProt P22687); settings: rabbits; Shinkai et al., Kobayashi et al., Okamoto et al.; cited from earlier work
T1 construct: host or cells: rabbits (endogenous plasma CETP)
T1 sequence (P22687 2-497): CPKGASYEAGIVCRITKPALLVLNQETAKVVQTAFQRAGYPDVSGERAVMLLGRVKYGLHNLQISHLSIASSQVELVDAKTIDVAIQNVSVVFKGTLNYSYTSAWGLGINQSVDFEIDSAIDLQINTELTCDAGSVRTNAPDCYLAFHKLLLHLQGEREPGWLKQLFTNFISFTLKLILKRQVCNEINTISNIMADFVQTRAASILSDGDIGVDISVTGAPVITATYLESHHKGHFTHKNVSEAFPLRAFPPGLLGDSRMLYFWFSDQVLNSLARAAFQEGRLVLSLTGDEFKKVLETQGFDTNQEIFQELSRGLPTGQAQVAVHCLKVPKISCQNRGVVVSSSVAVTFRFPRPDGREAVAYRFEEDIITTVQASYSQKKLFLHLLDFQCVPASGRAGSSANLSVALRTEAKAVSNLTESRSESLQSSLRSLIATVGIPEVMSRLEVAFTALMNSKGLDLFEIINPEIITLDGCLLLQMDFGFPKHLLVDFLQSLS

CCC(CC)CC1(C(=O)Nc2ccccc2SC(=O)C(C)C)CCCCC1 [dalcetrapib, thioisobutyric acid S-(2-{[1-(2-ethyl-butyl)-cyclohexanecarbonyl]-amino}-phenyl) ester]
LDL cholesterol [1]: decrease LDL cholesterol
plasma HDL cholesterol [1]: increase plasma HDL cholesterol
CETP activity [2]: inhibitor of CETP activity
